Measured values taken from article PMC4891047, “A 20(S)-protopanoxadiol derivative overcomes multi-drug resistance by antagonizing ATP-binding cassette subfamily B member 1 transporter function” (Oncotarget, 2016).
Read-outs that look alike come from different tables or passages of the source.

Legend:
ABCB1 [1] = target: T1, ABCB1 (Homo sapiens, UniProt P08183); assay: biochemical
T1 construct: membrane vesicles (Pgp-Glo assay system)

ABCB1 [2] = target: T1, ABCB1; assay: biochemical; remark: listed apart in the source

T1 sequence (P08183 whole entry): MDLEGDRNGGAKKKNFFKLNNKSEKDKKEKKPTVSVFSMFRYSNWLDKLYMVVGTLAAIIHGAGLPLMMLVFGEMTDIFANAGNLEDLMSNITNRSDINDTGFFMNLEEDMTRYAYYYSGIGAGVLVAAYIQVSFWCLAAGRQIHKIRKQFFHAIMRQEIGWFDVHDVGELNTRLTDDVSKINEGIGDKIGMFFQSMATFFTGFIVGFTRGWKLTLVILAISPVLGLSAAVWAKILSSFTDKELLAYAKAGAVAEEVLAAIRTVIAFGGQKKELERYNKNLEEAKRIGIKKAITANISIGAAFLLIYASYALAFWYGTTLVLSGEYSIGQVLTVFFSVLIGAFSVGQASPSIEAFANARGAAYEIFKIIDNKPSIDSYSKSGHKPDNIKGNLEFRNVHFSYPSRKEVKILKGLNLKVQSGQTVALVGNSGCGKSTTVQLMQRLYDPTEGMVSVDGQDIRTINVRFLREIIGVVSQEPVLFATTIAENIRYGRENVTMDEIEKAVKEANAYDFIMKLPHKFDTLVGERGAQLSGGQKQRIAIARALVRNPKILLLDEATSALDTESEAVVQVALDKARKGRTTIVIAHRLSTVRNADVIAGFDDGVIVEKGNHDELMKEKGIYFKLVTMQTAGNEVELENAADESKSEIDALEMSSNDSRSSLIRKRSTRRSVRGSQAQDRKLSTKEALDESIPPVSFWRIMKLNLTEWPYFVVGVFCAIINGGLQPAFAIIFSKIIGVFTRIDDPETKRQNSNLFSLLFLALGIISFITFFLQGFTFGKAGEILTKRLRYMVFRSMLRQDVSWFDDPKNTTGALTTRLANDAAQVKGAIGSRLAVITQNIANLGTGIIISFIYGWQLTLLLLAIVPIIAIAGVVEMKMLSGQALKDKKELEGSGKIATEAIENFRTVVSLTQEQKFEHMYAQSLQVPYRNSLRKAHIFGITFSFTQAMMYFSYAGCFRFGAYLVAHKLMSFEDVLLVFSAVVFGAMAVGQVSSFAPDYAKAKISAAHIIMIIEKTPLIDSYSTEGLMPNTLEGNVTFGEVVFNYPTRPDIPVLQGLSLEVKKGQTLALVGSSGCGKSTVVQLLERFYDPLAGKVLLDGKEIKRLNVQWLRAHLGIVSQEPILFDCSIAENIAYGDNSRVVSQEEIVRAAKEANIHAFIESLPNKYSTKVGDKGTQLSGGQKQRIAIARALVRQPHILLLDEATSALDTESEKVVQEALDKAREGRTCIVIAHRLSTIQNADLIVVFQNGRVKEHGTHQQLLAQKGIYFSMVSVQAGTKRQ

SMILES	EC50 (ABCB1 [1])	EC50 (ABCB1 [2])
COc1ccc(CNCCC[C@](C)(O)[C@H]2CC[C@]3(C)[C@@H]2[C@H](O)C[C@@H]2[C@@]4(C)CC[C@H](O)C(C)(C)[C@@H]4CC[C@]23C)cc1 [PPD11]	2380 nM	–
CC1(C)[C@@H](O)CC[C@]2(C)[C@H]3C[C@@H](O)[C@@H]4[C@@H]([C@@](C)(O)CCCNCc5ccccc5)CC[C@@]4(C)[C@]3(C)CC[C@@H]12 [PPD12]	–	1520 nM
CC(C)=CCC[C@](C)(O)[C@H]1CC[C@]2(C)[C@@H]1[C@H](O)C[C@@H]1[C@@]3(C)CC[C@H](O)C(C)(C)[C@@H]3CC[C@]12C [PPD, 20(S)-protopanoxadiol]	3130 nM	–
